Reference: US9073880B2, “2-(2-phenylethenyl) 1,3-benzodiazepine derivatives useful for the treatment of cancer” (Yissum Research Development Company of the Hebrew …, priority 2010, dated 2015)

How the values were obtained:
Format in all cases: cell-based
[1] = tested on: human lymphoma KARPAS cells; experiment: Cell proliferation, KARPAS (Example 4); conditions: compound in 2-hydroxypropyl-β-cyclodextrin
Description: (§1) Human ovary cancer A2780 cells lines were seeded at a density of 5000 cells/well, human melanoma A375 cells were plated at a density of 2,500 cells/well, human colon carcinoma HCT15 cells were plated at a density of 3,000 cells/well, human prostate carcinoma PC3 cells were plated at a density of 1,500 cells/well, human breast carcinoma MCF7 cells were plated at a density of 5,000 cells/well, human breast carcinoma MDA MB 468 cells were plated at a density of 6,000 cells/well, human myeloma U266, RPMI8226 and CAG cells were plated at a density of 10,000 cells/well. All cells were plated in 96-well plates in 90 μl growth medium containing 10% FCS, 100 units/ml penicillin and 100 μg/ml streptomycin. Compound 3 was added a day later in […] of 1% DMSO in DDW to obtain final concentrations of 0, 0.1, 0.3, 1, 3, and 10 μM. The final concentration of DMSO (0.1% DMSO) was kept constant in all samples. Following exposure of the cells to compound 3 for 72 hours at 37° C., adhered cells were fixed in 0.5% gluteraldehyde in medium for 10 min, washed three times with DDW, once with 0.1M sodium borate buffer pH 8.5 and stained with 1% methylene blue dissolved in 0.1M borate buffer solution for 60 min. Excess dye was washed out and cell-bound dye was eluted with 200 μl/well of 0.1M HCl. The optical density values were read at 630 nm in ELISA plate reader. Non-adhered cells were exposed to WST-1 reagent for 5 hours following 72 hours treatment with the inhibitors, and optical density values were read at 630 nm in ELISA plate reader. The data was analyzed in Microsoft Excel, using the vehicle control as 100% proliferation. The assays were performed in triplicates. The values of IC50 were derived from the dose-dependent growth curves obtained.
(§2) Cell proliferation assay was performed as described in Example 2. […]

human NCI-H1975 cells = experiment: Cell proliferation, NCI-H1975 (Example 4); conditions: NCI-H1975, SCLC, compound in 2-hydroxypropyl-β-cyclodextrin
Description: as §1, §2

[2] = tested on: human multiple myeloma CAG cells; experiment: Cell proliferation, CAG (Example 4); conditions: compound in 2-hydroxypropyl-β-cyclodextrin
Description: as §1, §2

[3] = tested on: human prostate carcinoma DU145 cells; experiment: Cell proliferation, DU145 (Example 4); conditions: DU-145, DU145, prostate cancer, compound in 2-hydroxypropyl-β-cyclodextrin
Description: as §1, §2

[4] = tested on: human prostate carcinoma PC3MM2 cells; experiment: Cell proliferation, PC3MM2 (Example 4); conditions: PC3MM2, prostate cancer, compound in 2-hydroxypropyl-β-cyclodextrin
Description: as §1, §2

[5] = tested on: human gastric cancer NCI-N87 cells; experiment: Cell proliferation, NCI-N87 (Example 4); conditions: compound in 2-hydroxypropyl-β-cyclodextrin
Description: as §1, §2

[6] = tested on: human multiple myeloma MM1S cells; experiment: Cytotoxicity of combination with Velcade in MM1S cells (CellTiter Glo); conditions: for α/a+β/b (synergism if <1): combination with Velcade, three days; for combined effect with Velcade versus Bliss additive effect: compound 0.1 or 0.2 M (so in the source), 1 and 1.5 nM Velcade, FIGS. 8 and 9
Description: Human multiple myeloma MM1S cells were plated at a density of 10,000 cells/well in 96-well plates in 90 μl growth medium containing 10% FCS, 100 units/ml penicillin and 100 μg/ml streptomycin. Velcade® (i.e. bortezomib or PS-341) was obtained from LC Laboratories. Compounds 3 and 5 were added a day later in 5 μl of 0.7% 2-hydroxypropyl-β-cyclodextrin in DDW to the multiple myeloma cell plates to obtain final concentrations of […]. Velcade® was added in 5 μl of 1% DMSO to obtain final concentrations of 0, 0.5, 1 and 1.5 nM. Three days later CellTiter Glo reagent (100 μl/well) was added to the medium (1:1), shaked, and following 10 min incubation transferred to 96-well white plates and read in a Luminometer. The data was analyzed in Microsoft Excel, using the vehicle control as 0% cytotoxicity. The assays were performed in triplicates. Cytotoxicity (%) was calculated as follows: [(absorbance of control cells—absorbance of drug-treated cells)/absorbance of control cells]×100. In FIGS. 8 and 9 the Bliss additivism model (Cardone et al. Science (1998), 282: 1318-1321) was used to calculate the combined effect using the following formula: Ebliss=EA+EB−EA×EB, where EA and EB are the fractional inhibitions obtained by drug A alone and drug B alone at specific concentrations. […] The synergic effect was calculated in an additional method in which the existence of α/a+β/b<1 was tested (a is the IC50 of drug A in the absence of drug B, α is the IC50 of drug A in the presence of drug B, b is the IC50 of drug B in the absence of drug A, β is the IC50 of drug B in the presence of drug A).

[7] = tested on: human melanoma YUMAC cells; experiment: Cell proliferation, YUMAC (Example 4); conditions: compound in 2-hydroxypropyl-β-cyclodextrin
Description: as §1
Cell proliferation assay was performed as described in Example 2. The following cell line were plated in 96-well plates in 90 μl growth medium containing 10% FCS, 100 units/ml penicillin and 100 μg/ml streptomycin: human ovary cancer A2780 cells (4500 cells/well), human melanoma A375 (1500 cells/well) and YUMAC (2500 cells/well) cells, human colon carcinoma HCT15 (3000 cells/well) and HCT116 (2000 cells/well) cells, human prostate carcinoma PC3 (3000 cells/well), PC3MM2 (3500 cells/well) and DU145 (300 cells/well) cells, human hepatocarcinoma HepG2 (3000 cells/well), human Ewing sarcoma SK-ES-1 (4,500 cells/well), human glioblastoma U138MG (2,000 cells/well), human breast cancer T47D (4000 cells/well) and MDA-MB-468 (6000 cells/well) cells, human small cell lung carcinoma NCI-H1975 (5000 cells/well) cells, human osteosarcoma Saos-2 (5000 cells/well) cells, human pancreatic cancer ASPC (2500 cells/well) cells, human bladder carcinoma T24P (1000 cells/well) cells, human gastric cancer NCI-N87 (5000 cells/well) cells, human lymphoma KARPAS (5,000 cells/well) cells, human leukemia K562 (5,000 cells/well) cells and human multiple myeloma MM1S (10,000 cells/well), U266 (10,000 cells/well) and CAG (5,000 cells/well). Compounds 2-5 and 7-8 were added a day later in 10 μl of 0.7% 2-hydroxypropyl-β-cyclodextrin to obtain final concentrations of 0, 0.1, 0.3, 1, 3 and 10 μM.
Compounds 2-5 and 7-8 of the present invention were tested for their inhibitory potential in cell proliferation assay. […]

SMILES	IC50 [1]	IC50 (human NCI-H1975 cells)	IC50 [2]	IC50 [3]	IC50 [4]	IC50 [5]	α/a+β/b (synergism if <1) [6]	combined effect with Velcade versus Bliss additive effect [6]	IC50 [7]
O=c1c(O)cc2cnc(/C=C/c3ccc(O)c(O)c3Br)sc-2c1O [Compound 5]	900 nM	800 nM	700 nM	2700 nM	1800 nM	4000 nM	0.6	strong synergistic effect	200 nM
O=c1c(O)cc2cnc(/C=C/c3cc(O)c(O)c(Br)c3)sc-2c1O [Compound 3]	500 nM	1000 nM	900 nM	2300 nM	2300 nM	4500 nM	0.7	strong synergistic effect	300 nM
